Assay results taken from PMC6332508, “A Promising PET Tracer for Imaging of α7 Nicotinic Acetylcholine Receptors in the Brain: Design, Synthesis, and in Vivo Evaluation of a Dibenzothiophene-Based Radioligand” (Molecules, 2015).
Where two headings read alike, the source gives them in different places.

Tests used:
α7 nAChR [1] = biological target: α7 nAChR; design: method as in PMID 22281189; conditions: cited from earlier work
α7 nAChR [2] = conditions: [125I]α-bungarotoxin labelled rat cortical membranes; cited from earlier work
choline transporter = biological target: T1, choline transporter (Homo sapiens, UniProt Q9GZV3); experiment: Off-target radioligand binding assay, choline transporter; conditions: 1 μM; significant at ≥50% inhibition or stimulation
T1 construct: Eurofins Panlabs, Inc
T1 sequence (Q9GZV3 1-580): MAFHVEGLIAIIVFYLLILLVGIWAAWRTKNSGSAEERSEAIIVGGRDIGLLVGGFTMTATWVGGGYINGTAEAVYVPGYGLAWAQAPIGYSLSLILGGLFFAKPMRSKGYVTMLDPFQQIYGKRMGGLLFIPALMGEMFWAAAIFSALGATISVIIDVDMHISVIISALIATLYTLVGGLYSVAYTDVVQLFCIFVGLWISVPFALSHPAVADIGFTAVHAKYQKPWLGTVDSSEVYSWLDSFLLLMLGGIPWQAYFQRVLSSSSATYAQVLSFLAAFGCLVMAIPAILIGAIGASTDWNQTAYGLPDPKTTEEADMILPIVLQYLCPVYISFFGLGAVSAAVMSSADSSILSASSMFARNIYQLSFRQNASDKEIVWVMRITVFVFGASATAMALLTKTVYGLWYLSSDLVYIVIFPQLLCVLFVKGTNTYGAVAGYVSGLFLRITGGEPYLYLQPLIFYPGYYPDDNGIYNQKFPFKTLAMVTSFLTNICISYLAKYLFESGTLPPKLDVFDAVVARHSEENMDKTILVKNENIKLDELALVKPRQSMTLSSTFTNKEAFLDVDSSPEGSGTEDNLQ
Method: (§1) The activity of compound 10a was evaluated by a contract research organization (Eurofins Panlabs, Inc.). The test concentration was 1 μM and radioligand binding assays for dopamine transporter (DAT), serotonin transporter (SERT), norepinephrine transporter (NET), monoamine transporter (VMAT), choline transporter, and α1 nAChR performed according to the manufacturer’s protocols.

α3β4 nAChR = biological target: α3β4 nAChR; design: method as in PMID 24050653; conditions: rat receptor subtype; cited from earlier work
[3] = Acute toxicity study in rats, single intravenous injection; format: in vivo, Wistar rats
Method: The acute toxicity of 10a was assessed when administered by a single intravenous injection to rats followed by an observation period of 2 or 15 day (Hameln rds, Modra, Slovak Republic). The study was performed with 4 test groups, including 1 control and 3 dose groups (6.2, 62 and 620 μg∙kg^−1), with 60 males and 60 females Wistar rats divided into two experiment cohorts: Day 2 (40 males and 40 females) and Day 15 (20 males and 20 females). The animals were weighed and allocated to the test groups based on their body weights. The animals were sacrificed in two time periods (day 2 and day 15 after test item administration) and then examined macroscopically and histopathologically. The following parameters were evaluated: mortality, clinical observation, body weights, food consumption, haematology (white blood cells, red blood cells, hemoglobin, hematocrit, mean corpuscular volume, mean corpuscular hemoglobin, platelets, lympohcytes, neutrophils, eosinophils, basophils, monocytes), clinical chemistry (alkaline phosphatase, aspartate aminotransferase, alanine aminotransferase, glucose, cholesterol, triacylglycerols, creatinine, urea, bilirubin, albumin, calcium, phosphorus, sodium, potassium chloride), pathology and histopathology.

[4] = test system: monoamine transporter (VMAT); experiment: Off-target radioligand binding assay, VMAT; conditions: 1 μM; significant at ≥50% inhibition or stimulation
Method: as §1

human α7 nAChR = biological target: T2, human α7 nAChR (Homo sapiens, UniProt P36544); experiment: Radioligand displacement at human α7 nAChR, [3H]methyllycaconitine, SH-SY5Y cells; format: binding
T2 construct: expressed in transfected cells; host or cells: SH-SY5Y

[5] = biological target: T3, dopamine transporter (DAT) (Homo sapiens, UniProt Q01959); experiment: Off-target radioligand binding assay, DAT; conditions: 1 μM; significant at ≥50% inhibition or stimulation
T3 construct: Eurofins Panlabs, Inc
Method: as §1

[6] = biological target: T4, norepinephrine transporter (NET) (Homo sapiens, UniProt P23975); experiment: Off-target radioligand binding assay, NET; conditions: 1 μM; significant at ≥50% inhibition or stimulation
T4 construct: Eurofins Panlabs, Inc
Method: as §1

[7] = biological target: T5, serotonin transporter (SERT) (Homo sapiens, UniProt P31645); experiment: Off-target radioligand binding assay, SERT; conditions: 1 μM; significant at ≥50% inhibition or stimulation
T5 construct: Eurofins Panlabs, Inc
Method: as §1

rat α6β2* nAChR = rat α6β2* nAChR (Rattus norvegicus, UniProt P12390+P43143); experiment: [3H]epibatidine binding to antibody-immobilized native rat α6β2* nAChR from striatum; conditions: read-out: Affinity (Ki in nM) rα6β2*, immunoimmobilization with anti-rα6 antibody, [3H]epibatidine 0.1 nM
Method: The specificity of the anti-α6 antibody was tested as described. The receptors were prepared and immobilized as previously described by the subunit-specific antibody. […] Incubations were performed in a buffer containing 50 mM Tris-HCl, pH 7, 150 mM NaCl, 5 mM KCl, 1 mM MgCl2, 2.5 mM CaCl2, 2 mg∙mL^−1 BSA, and 0.05% Tween 20. Specific ligand binding was defined as total binding minus the binding in the presence of 100 nM (±)-epibatidine dihydrochloride hydrate.
The experimental data obtained from the binding experiments were analyzed by means of a non-linear least square procedure using the LIGAND program. The Ki values of the test compounds were also determined by means of the LIGAND program by simultaneously fitting the data obtained from three to five independent saturation and competition binding experiments.

human α4β2 nAChR = biological target: T6, human α4β2 nAChR (Homo sapiens, UniProt P17787+P43681); experiment: Radioligand displacement at human α4β2 nAChR, [3H]epibatidine, HEK293 cells; format: binding; conditions: stably transfected HEK-293 cells, [3H]epibatidine; read-out: Affinity (Ki in nM) hα4β2
T6 construct: expressed in transfected cells; host or cells: HEK293
Method: (§2) The affinity of the test compounds for human α4β2 and α3β4 nAChR was determined as described above. In brief, HEK293 cells stably expressing human α4β2 or α3β4 nAChR [66] were cultured. […] Nonspecific binding was determined in the presence of 300 μM (−)-nicotine tartrate. Incubation of the samples, separation of free from receptor-bound radioligand, and data evaluation were performed as described above.

α1 nAChR = biological target: T7, α1 nAChR (Homo sapiens, UniProt P02708+P07510+Q07001); experiment: Off-target radioligand binding assay, α1 nAChR; conditions: 1 μM; significant at ≥50% inhibition or stimulation
T7 construct: Eurofins Panlabs, Inc
Method: as §1

human α3β4 nAChR = biological target: T8, human α3β4 nAChR (Homo sapiens, UniProt P30926+P32297); experiment: Radioligand displacement at human α3β4 nAChR, [3H]epibatidine, HEK293 cells; format: binding; conditions: stably transfected HEK-293 cells, [3H]epibatidine; read-out: Affinity (Ki in nM) hα3β4
T8 construct: expressed in transfected cells; host or cells: HEK293
Method: as §2

human 5-HT3 receptor = biological target: T9, human 5-HT3 receptor (Homo sapiens, UniProt P46098); experiment: Radioligand binding at human 5-HT3 receptor, [3H]GR65630 (Eurofins Panlabs)
T9 construct: host or cells: HEK-293
T9 sequence (P46098 24-478): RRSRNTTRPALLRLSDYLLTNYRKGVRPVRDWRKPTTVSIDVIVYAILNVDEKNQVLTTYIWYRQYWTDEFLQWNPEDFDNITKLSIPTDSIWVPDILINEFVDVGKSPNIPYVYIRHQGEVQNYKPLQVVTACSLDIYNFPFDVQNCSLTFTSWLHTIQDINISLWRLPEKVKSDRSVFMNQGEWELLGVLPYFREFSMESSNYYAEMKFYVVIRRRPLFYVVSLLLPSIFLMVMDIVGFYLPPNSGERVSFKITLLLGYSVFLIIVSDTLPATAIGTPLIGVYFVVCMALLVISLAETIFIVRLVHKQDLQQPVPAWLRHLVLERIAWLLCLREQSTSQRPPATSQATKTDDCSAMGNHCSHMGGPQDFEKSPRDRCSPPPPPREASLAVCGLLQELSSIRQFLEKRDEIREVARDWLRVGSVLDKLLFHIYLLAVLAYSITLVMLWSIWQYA

T2 sequence (P36544 23-502): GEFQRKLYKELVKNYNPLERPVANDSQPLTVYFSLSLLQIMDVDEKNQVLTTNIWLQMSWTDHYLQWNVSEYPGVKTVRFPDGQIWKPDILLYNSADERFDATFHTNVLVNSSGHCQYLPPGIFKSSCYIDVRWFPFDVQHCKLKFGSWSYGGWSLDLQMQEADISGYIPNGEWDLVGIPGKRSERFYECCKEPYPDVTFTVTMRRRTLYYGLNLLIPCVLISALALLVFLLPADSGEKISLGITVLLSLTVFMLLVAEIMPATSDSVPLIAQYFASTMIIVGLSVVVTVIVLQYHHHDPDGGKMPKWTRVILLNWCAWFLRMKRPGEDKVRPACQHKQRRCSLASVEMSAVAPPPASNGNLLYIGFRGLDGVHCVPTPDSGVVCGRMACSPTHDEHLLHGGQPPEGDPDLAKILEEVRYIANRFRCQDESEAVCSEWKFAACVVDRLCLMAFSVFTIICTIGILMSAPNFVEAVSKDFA
T6 sequence (P43681 29-627 limits assumed): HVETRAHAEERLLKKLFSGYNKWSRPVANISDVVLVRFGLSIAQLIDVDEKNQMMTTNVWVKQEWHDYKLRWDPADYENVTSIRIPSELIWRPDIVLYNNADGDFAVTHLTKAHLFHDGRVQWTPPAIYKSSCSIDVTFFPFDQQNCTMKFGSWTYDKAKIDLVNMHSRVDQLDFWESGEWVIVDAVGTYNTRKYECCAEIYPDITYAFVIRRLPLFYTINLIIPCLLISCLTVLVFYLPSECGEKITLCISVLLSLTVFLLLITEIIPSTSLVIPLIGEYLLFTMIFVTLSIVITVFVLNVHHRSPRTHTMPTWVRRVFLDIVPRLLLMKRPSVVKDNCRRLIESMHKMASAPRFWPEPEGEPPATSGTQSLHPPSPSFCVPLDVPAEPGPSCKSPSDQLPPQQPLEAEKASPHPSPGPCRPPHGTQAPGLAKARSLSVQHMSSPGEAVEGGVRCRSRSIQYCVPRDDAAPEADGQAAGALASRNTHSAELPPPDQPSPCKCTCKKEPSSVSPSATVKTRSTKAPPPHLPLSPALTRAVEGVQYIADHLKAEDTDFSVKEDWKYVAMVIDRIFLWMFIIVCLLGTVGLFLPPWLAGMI
T6 sequence (P17787 26-502): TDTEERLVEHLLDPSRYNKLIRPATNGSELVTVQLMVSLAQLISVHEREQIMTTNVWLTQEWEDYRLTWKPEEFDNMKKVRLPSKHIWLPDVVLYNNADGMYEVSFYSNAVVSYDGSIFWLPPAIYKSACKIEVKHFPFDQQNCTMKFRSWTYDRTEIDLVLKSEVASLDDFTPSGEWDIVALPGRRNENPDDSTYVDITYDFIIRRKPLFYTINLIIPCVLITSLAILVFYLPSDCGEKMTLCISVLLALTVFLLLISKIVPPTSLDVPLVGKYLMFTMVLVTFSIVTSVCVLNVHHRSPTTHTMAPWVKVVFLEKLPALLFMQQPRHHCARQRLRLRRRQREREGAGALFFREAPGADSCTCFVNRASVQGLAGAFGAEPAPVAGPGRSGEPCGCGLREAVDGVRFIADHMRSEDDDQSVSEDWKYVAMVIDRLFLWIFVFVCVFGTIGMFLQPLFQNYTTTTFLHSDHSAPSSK
T4 sequence (P23975 whole entry, species assumed): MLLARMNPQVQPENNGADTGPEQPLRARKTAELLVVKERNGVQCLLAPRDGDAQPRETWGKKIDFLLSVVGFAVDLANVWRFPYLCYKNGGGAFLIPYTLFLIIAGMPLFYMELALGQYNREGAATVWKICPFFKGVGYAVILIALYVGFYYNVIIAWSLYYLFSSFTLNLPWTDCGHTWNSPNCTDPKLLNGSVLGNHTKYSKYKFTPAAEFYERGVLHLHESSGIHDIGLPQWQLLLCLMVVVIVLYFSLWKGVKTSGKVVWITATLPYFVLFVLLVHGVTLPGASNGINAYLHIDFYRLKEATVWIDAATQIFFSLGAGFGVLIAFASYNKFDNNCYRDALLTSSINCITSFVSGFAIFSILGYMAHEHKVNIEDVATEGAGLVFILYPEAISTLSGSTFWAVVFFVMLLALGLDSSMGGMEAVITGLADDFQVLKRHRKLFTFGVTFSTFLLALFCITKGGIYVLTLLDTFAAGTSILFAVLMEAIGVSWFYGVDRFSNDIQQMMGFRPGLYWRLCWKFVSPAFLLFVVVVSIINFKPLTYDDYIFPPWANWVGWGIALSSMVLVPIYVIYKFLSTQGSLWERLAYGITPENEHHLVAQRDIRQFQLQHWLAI
Chain of rat α6β2* nAChR (P43143 31-493): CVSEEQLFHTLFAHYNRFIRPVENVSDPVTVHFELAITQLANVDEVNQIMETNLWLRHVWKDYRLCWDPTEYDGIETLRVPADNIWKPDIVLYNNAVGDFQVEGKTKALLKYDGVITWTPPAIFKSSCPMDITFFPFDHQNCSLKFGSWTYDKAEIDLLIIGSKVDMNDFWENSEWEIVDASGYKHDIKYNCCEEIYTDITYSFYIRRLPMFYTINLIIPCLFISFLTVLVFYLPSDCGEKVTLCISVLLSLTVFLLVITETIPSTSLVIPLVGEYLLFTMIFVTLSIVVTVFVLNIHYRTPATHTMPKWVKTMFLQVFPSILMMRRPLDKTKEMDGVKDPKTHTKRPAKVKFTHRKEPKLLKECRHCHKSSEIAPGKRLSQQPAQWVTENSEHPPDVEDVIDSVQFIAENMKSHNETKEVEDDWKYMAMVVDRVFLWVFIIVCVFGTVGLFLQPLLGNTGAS
Chain of rat α6β2* nAChR (P12391 31-464, further chain): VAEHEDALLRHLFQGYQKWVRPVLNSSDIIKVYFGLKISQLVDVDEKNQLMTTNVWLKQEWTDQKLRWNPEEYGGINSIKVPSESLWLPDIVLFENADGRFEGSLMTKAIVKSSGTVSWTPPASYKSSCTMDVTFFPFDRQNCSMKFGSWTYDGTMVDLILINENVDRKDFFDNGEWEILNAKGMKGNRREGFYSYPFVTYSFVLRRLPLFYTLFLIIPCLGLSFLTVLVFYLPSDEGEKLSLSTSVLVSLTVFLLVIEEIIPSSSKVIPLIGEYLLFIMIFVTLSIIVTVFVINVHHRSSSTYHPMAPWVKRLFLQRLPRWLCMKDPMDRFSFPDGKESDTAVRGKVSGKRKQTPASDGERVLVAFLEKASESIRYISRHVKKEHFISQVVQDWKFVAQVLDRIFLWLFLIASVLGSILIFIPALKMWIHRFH
Chain of rat α6β2* nAChR (P12390 25-500): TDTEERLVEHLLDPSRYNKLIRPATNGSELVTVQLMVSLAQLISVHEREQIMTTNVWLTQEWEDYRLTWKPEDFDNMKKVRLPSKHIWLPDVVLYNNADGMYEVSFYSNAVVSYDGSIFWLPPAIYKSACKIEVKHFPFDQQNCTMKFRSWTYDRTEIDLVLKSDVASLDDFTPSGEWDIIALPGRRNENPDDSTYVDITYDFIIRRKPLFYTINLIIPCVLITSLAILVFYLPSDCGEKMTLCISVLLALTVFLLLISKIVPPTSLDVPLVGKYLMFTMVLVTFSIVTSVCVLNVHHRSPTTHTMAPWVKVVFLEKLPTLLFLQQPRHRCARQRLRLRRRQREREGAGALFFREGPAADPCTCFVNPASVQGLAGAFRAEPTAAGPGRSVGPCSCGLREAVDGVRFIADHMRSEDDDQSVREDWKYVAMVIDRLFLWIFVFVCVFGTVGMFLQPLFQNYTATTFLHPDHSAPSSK
T5 sequence (P31645 whole entry, species assumed): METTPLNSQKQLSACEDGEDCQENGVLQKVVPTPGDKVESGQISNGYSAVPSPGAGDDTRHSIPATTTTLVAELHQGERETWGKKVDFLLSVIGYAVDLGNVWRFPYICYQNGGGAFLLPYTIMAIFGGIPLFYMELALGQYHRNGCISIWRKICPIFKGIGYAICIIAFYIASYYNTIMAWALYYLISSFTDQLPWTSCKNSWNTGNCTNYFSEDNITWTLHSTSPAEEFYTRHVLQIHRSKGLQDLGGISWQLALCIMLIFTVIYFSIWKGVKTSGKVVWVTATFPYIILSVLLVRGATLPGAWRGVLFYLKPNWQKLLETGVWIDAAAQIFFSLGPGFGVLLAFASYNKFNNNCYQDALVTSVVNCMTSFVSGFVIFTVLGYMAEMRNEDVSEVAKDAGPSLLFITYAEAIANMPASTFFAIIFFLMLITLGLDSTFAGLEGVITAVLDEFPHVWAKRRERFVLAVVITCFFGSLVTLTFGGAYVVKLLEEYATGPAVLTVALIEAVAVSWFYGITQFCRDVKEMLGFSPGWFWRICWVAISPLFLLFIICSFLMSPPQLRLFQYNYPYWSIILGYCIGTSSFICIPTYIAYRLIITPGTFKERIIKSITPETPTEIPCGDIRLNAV
T3 sequence (Q01959 whole entry, species assumed): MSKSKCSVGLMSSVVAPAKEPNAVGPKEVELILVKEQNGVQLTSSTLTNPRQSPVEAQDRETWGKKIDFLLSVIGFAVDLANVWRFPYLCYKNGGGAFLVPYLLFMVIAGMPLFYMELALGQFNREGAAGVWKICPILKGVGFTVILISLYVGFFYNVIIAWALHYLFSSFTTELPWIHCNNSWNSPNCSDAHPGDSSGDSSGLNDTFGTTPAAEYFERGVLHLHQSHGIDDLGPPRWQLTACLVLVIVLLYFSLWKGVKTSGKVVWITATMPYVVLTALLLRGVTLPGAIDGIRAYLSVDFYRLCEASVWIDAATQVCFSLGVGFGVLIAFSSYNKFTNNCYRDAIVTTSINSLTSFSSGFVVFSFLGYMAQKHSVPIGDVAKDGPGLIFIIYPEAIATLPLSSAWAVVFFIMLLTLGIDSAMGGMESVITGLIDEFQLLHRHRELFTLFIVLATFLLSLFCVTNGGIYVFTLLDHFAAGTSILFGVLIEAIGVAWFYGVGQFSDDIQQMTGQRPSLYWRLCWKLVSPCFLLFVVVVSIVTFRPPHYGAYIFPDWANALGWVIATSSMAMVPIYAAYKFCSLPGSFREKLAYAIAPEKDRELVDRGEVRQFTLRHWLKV

SMILES: CCN(CC)CCOc1ccc2c(c1)C(=O)c1cc(OCCN(CC)CC)ccc1-2 [tilorone]
- Ki (α7 nAChR [1]): 56 nM

SMILES: O=S1(=O)c2ccc(F)cc2-c2ccc(N3CCN4CCC3CC4)cc21 [Compound 10a, 7-(1,4-Diazabicyclo[3.2.2]nonan-4-yl)-2-fluorodibenzo[b,d]thiophene 5,5-dioxide]
- Ki (α7 nAChR [2]): 1.4 nM
- binding to choline transporter (choline transporter): no significant binding
- Ki (α3β4 nAChR): 5000 nM
- body weights, control vs treated groups ([3]; 6.2, 62 and 620 μg∙kg^−1 single i.v., either gender): No statistically significant differences
- clinical observation ([3]; 6.2, 62 and 620 μg∙kg^−1 single i.v., rats): no notable clinical effects
- pathological and histopathological parameters ([3]; single i.v., Day 2 or Day 15, rats): did not result in changes
- no observed effect level (NOEL) ([3]; single intravenous injection, rats, observation 2 or 15 day): 0.62 mg/kg
- binding to VMAT [4]: no significant binding
- Selectivity (Ki ratio) α7/α3β4 (human α7 nAChR; Ki hα3β4 divided by Ki hα7): 198
- Selectivity (Ki ratio) α7/α4β2 (human α7 nAChR; Ki hα4β2 divided by Ki hα7): 862
- Ki (human α7 nAChR; stably transfected SH-SY5Y cells, [3H]methyllycaconitine, read-out: Affinity (Ki in nM) hα7): 0.6 ± 0.44 nM
- binding to DAT [5]: no significant binding
- binding to NET [6]: no significant binding
- binding to SERT [7]: no significant binding
- Ki (rat α6β2* nAChR): 589 ± 217 nM
- Ki (human α4β2 nAChR): 517 ± 375 nM
- binding to α1 nAChR (α1 nAChR): no significant binding
- Ki (human α3β4 nAChR): 119 ± 29 nM
- inhibition at 0.1 µM (human 5-HT3 receptor; 0.1 μM concentration of test compound, [3H]GR65630 binding, read-out: 5-HT3 percentage of inhibition): 2%
- Ki (human 5-HT3 receptor; recombinant HEK293 cells, [3H]GR65630, estimated from seven concentrations (20 μM–5 nM), read-out: Affinity (Ki in nM) 5-HT3): 440 nM
